Results from patent publication US20030211941A1, “Methods for identifying signalling molecules” (priority 2002, published 2003).
Non-standard residues stand in square brackets, D forms with d. Hyp = O=C(O)[C@@H]1C[C@@H](O)CN1

What was measured:
[1] = tested on: tobacco proteinase inhibitor protein; experiment: Proteinase inhibitor inducing assay (tobacco leaves; supplied to young tobacco plants through cut stems); type: in vivo; settings: for Induction of tobacco proteinase inhibitor protein (in words): tobacco plants; for Concentrations for 1/2 maximal activity in Proteinase Inhibitor Inducing Assays (Tobacco Leaves): young tobacco plants, supplied through cut stems
Experimental: The purified polypeptides were sequenced and named tobacco systemin I (peak I activity) (SEQ ID NO: 1) and tobacco systemin II (peak II activity) (SEQ ID NO: 2). Both are polypeptides of 18 amino acids and both are glycosylated. Using mild acid hydrolysis, the carbohydrates were removed, and the masses of both tobacco systemin I (SEQ ID NO: 1) and tobacco systemin II (SEQ ID NO: 2) were analyzed before and after acid hydrolysis using a MALDI-MS. The amino acid sequence of tobacco systemin I is NH2-RGANLPXXSXASSXXSKE-COO. (SEQ ID NO:1). The amino acid sequence of tobacco systemin II is NH2-NRKPLSXXSXKPADGQRP-COO (SEQ ID NO:2). The one letter abbreviation “X” represents hydroxyproline. The masses after acid hydrolysis exactly matched the masses obtained by sequence analysis. […] The potency of the tobacco systemins was similar to that found for tomato systemin (disclosed in U.S. Pat. No. 5,378,819) in its alkalinization response in tomato cell suspension cultures and in inducing proteinase inhibitors in leaves of excised tomato plants (Table 1).

[2] = tested on: tobacco suspension cell cultures; experiment: Alkalinization assay (tobacco cell suspension cultures); type: cell-based, N. tabacum; settings: for EC50: 2 ml tobacco suspension cells, read-out: Concentrations for 1/2 maximal activity in Alkalinization Assays (Tobacco Cell Suspension Cultures); for Alkalinization of tobacco suspension cell cultures (in words): tobacco suspension cells
Experimental: Column fractions were assayed using suspension-cultured tobacco cells as follows. An aliquot of cells (usually 1 to 2 ml) were placed in the wells of culture plates, then aliquots from each column fraction (1 to 10 μL) were placed in each well of the culture plates. The cells in the plates were agitated by a circular motion of the rotary shaker on which they sat. The pH was then monitored over time and the change in pH at various times was plotted versus fraction number.
The two active peaks were solubilized in 1 ml 0.1% TFA each and injected into a narrow bore reversed-phase C18 column (Vydac, Column 218TP52, 2.1 by 250 mm, 5 μm beads, 300 angstrom pores). Solvent A consisted of 0.1% TFA in water, and solvent B was 0.05% TFA in methanol. Samples were injected in solvent A, and after 2 minutes, a 90 minute gradient from 0% solvent B to 30% solvent B was applied. The flow rate was 0.25 ml/min and the fractions (0.25 ml) were monitored at 214 nm and 2 μl were assayed for their alkalinization activity in tobacco cell cultures. The elution and alkalinization profiles for peak I activity are shown in FIG. 3A and FIG. 3B, respectively. The elution and alkalinization profile for peak II activity are shown in FIG. 4A and FIG. 4B, respectively.
The cells can be maintained in 125 mL Ehrlenmeyer flasks on an orbital shaker (160 rpm) under constant light. Three milliliters of cells are subcultured every seven days into 45 mL of sterile media (unbuffered, pH 5.5 adjusted with 0.1 M KOH) containing 3% sucrose, 4.3 g/L Murashige and Skoog salt mixture, 5 mg/L 1-napthylacetic acid, 2 mg/L 6-benzylaminopurine, 110 mg/L Nitsch and Nitsch vitamin powder, 1 mg/L thiamine, 100 mg/L myo-inositol and 1 mM EDTA. Cells can be used for alkalinization assays from 4 to 8 days after subculturing.

MAP kinase protein = experiment: MAP kinase assay in tobacco leaf extracts; type: biochemical
Description: The ability of tobacco systemin I (SEQ ID NO: 1), tobacco systemin II (SEQ ID NO: 2) and the 5 kDa polypeptide, described in Example 2 herein, to stimulate the phosphorylation of a MAP kinase protein in tobacco leaf extracts was investigated. The MAP kinase assay utilized was essentially as described in Stratmann, J. W. and Ryan, C. A., Proc. Nat'l. Acad. Sci. U.S.A. 94:11085-11089 (1997), which publication is incorporated herein by reference.

| Substance | Induction of tobacco proteinase inhibitor protein (in words) [1] | Concentrations for 1/2 maximal activity in Proteinase Inhibitor Inducing Assays (Tobacco Leaves) [1] | EC50 [2] | Alkalinization of tobacco suspension cell cultures (in words) [2] | MAP kinase stimulating activity (in words) (MAP kinase protein) |
| --- | --- | --- | --- | --- | --- |
| 18 amino acid glycosylated polypeptide from tobacco, NH2-NRKPLSXXSXKPADGQRP-COO (X = hydroxyproline), 6 pentose units (H-NRKPLS[Hyp][Hyp]S[Hyp]KPADGQRP-OH; also: 6 pentose units glycosylation, places not given here) [Tob Sys II, tobacco systemin II] | active at low picomole levels | ˜200 fmol/plant | ~0.25 nM | active at low picomole levels | possess MAP kinase stimulating activity |
| 18 amino acid glycosylated polypeptide from tobacco, NH2-RGANLPXXSXASSXXSKE-COO (X = hydroxyproline), 9 pentose units (H-RGANLP[Hyp][Hyp]S[Hyp]ASS[Hyp][Hyp]SKE-OH; also: 9 pentose units glycosylation, places not given here) [Tob Sys I, tobacco systemin I] | active at low picomole levels | ˜200 fmol/plant | ~0.25 nM | active at low picomole levels | – |
| tomato systemin (AVQSKPPSKRDPPKMQTD; Systemin; UniProt P27058 179-196, looked up) [tomato systemin disclosed in U.S. Pat. No. 5,378,819, reference compound] | – | – | – | does not cause alkalinization | – |
